Data on 45 compounds can be found in article PMC3265452 (PLoS Neglected Tropical Diseases, 2012).

Structures can show the parent of a compound that is named as a salt.

AaDOP2, sequence (H6D5H2 1-476): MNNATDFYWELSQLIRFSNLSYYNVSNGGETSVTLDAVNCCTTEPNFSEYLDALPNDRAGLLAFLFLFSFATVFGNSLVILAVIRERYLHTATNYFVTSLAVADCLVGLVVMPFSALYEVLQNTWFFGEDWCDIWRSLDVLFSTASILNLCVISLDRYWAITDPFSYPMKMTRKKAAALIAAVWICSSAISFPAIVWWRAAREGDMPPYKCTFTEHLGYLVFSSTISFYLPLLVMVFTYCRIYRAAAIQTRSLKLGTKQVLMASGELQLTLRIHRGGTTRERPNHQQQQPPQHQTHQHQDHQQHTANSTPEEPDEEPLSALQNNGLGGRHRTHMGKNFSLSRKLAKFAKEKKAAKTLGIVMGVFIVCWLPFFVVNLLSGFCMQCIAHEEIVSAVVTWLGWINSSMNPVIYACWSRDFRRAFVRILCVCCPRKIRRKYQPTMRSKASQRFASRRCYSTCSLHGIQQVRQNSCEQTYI

The first assay has as its target AaDOP2 (Aedes aegypti, UniProt H6D5H2). The experiment in a line: AaDOP2 antagonist screen of the LOPAC1280 library (HEK-CRELuc-Aadop2 cells, luminescence). The assay is classed as cell-based.
Conditions: not given
On to `CNC(=O)[C@H]1O[C@@H](n2cnc3c(NCc4cccc(I)c4)nc(Cl)nc32)[C@H](O)[C@@H]1O` [Compound 353, Chloro-IB-MECA], for which the “Compound effect (percent receptor signaling in presence of test compound, relative lux units relative to the SCH23390 control)” value is 120.

Regarding `O=[N+]([O-])c1cc2nc(O)c(O)nc2cc1[N+](=O)[O-]` [Compound 355, DNQX], the “Compound effect (percent receptor signaling in presence of test compound, relative lux units relative to the SCH23390 control)” value is on record as 100.

For `C[C@@H]1O[C@@H](O[C@H]2C[C@@H](O)[C@]3(CO)[C@H]4[C@H](O)C[C@]5(C)[C@@H]([C@@H]6COC(=O)C6)CC[C@]5(O)[C@@H]4CC[C@]3(O)C2)[C@H](O)[C@H](O)[C@H]1O` [Compound 356, Dihydroouabain], the “Compound effect (percent receptor signaling in presence of test compound, relative lux units relative to the SCH23390 control)” value is listed as 56.

As for `CC(CCc1ccc(O)cc1)NCCc1ccc(O)c(O)c1` (stereo not shown) [Compound 357, Dobutamine hydrochloride], the “Compound effect (percent receptor signaling in presence of test compound, relative lux units relative to the SCH23390 control)” value is reported as 98.

For the compound `CC(C)[C@H]1CN[C@H](C(=O)O)[C@H]1CC(=O)O` [Compound 358, Dihydrokainic acid], the “Compound effect (percent receptor signaling in presence of test compound, relative lux units relative to the SCH23390 control)” value was 94.

With `C[N+](C)(C)CCCCCCCCCC[N+](C)(C)C.[Br-].[Br-]` [Compound 359, Decamethonium dibromide], the “Compound effect (percent receptor signaling in presence of test compound, relative lux units relative to the SCH23390 control)” value was determined as 98.

On to `Nc1ncnc2c1ncn2[C@@H]1O[C@H](COP(=O)(O)OP(=O)(O)OP(=O)(O)OP(=O)(O)OC[C@H]2O[C@@H](n3cnc4c(N)ncnc43)[C@H](O)[C@@H]2O)[C@@H](O)[C@H]1O` [Compound 360, P1,P4-Di(adenosine-5')tetraphosphate triammonium], for which the “Compound effect (percent receptor signaling in presence of test compound, relative lux units relative to the SCH23390 control)” value is 75.

`N=C(N)N1CCc2ccccc2C1` [Compound 361, Debrisoquin sulfate]: the “Compound effect (percent receptor signaling in presence of test compound, relative lux units relative to the SCH23390 control)” value was 86.

With `Cc1cn([C@H]2C=C[C@@H](CO)O2)c(=O)[nH]c1=O` [Compound 362, 2',3'-didehydro-3'-deoxythymidine], the “Compound effect (percent receptor signaling in presence of test compound, relative lux units relative to the SCH23390 control)” value is on record as 99.

Regarding `O=C(CCCN1CC=C(n2c(=O)[nH]c3ccccc32)CC1)c1ccc(F)cc1` [Compound 363, Droperidol], the “Compound effect (percent receptor signaling in presence of test compound, relative lux units relative to the SCH23390 control)” value stood at 58.

For `COC(=O)[C@@H](N)Cc1ccc(O)c(O)c1.Cl` [Compound 364, L-3,4-Dihydroxyphenylalanine methyl ester hydrochloride], the “Compound effect (percent receptor signaling in presence of test compound, relative lux units relative to the SCH23390 control)” value was 90.

Regarding `OC[C@H]1NC[C@@H](O)[C@@H]1O` [Compound 365, 1,4-Dideoxy-1,4-imino-D-arabinitol], the “Compound effect (percent receptor signaling in presence of test compound, relative lux units relative to the SCH23390 control)” value turned out to be 103.

Take `O=[N+]([O-])c1ccc(O[C@@H]2O[C@H](CO)[C@@H](O)[C@H](O)[C@H]2F)c([N+](=O)[O-])c1` [Compound 366, 2,4-Dinitrophenyl 2-fluoro-2-deoxy-beta-D-glucopyranoside]: the “Compound effect (percent receptor signaling in presence of test compound, relative lux units relative to the SCH23390 control)” value came out at 75.

Regarding `COc1ccc([C@@H]2Sc3ccccc3N(CCN(C)C)C(=O)[C@@H]2OC(C)=O)cc1` [Compound 369, Diltiazem hydrochloride], the “Compound effect (percent receptor signaling in presence of test compound, relative lux units relative to the SCH23390 control)” value is 107.

Take `Br.COc1ccc2c(c1)[C@]13CCCC[C@@H]1[C@H](C2)N(C)CC3.O` [Compound 370, Dextromethorphan hydrobromide monohydrate]: the “Compound effect (percent receptor signaling in presence of test compound, relative lux units relative to the SCH23390 control)” value came to 102.

For the compound `O=C(OCCN1CCCCC1)c1c[nH]c2ccccc12` [Compound 371, SB 203186], the “Compound effect (percent receptor signaling in presence of test compound, relative lux units relative to the SCH23390 control)” value stood at 84.

As to `CN1C[C@H](C(=O)N[C@]2(C)O[C@@]3(O)[C@@H]4CCCN4C(=O)[C@H](Cc4ccccc4)N3C2=O)C[C@@H]2c3cccc4[nH]cc(c34)C[C@H]21` [Compound 372, Dihydroergotamine methanesulfonate], the “Compound effect (percent receptor signaling in presence of test compound, relative lux units relative to the SCH23390 control)” value was found to be 46.

`c1ccc2c(c1)[I+]c1ccccc1-2` [Compound 373, Diphenyleneiodonium chloride]: the “Compound effect (percent receptor signaling in presence of test compound, relative lux units relative to the SCH23390 control)” value is listed as 36.

For `CC(=O)C(C)=O` [Compound 375, 2,3-Butanedione], the “Compound effect (percent receptor signaling in presence of test compound, relative lux units relative to the SCH23390 control)” value is given as 88.

For `N[C@H](C(=O)O)c1cc(O)cc(O)c1` [Compound 377, (S)-3,5-Dihydroxyphenylglycine], the “Compound effect (percent receptor signaling in presence of test compound, relative lux units relative to the SCH23390 control)” value worked out at 93.

Take `Cc1cc(N)c2ccccc2[n+]1CCCCCCCCCC[n+]1c(C)cc(N)c2ccccc21` [Compound 378, Dequalinium dichloride]: the “Compound effect (percent receptor signaling in presence of test compound, relative lux units relative to the SCH23390 control)” value stood at 73.

On to `CN(C)CCOC(C)(c1ccccc1)c1ccccn1` (stereo not shown) [Compound 379, Doxylamine succinate], for which the “Compound effect (percent receptor signaling in presence of test compound, relative lux units relative to the SCH23390 control)” value was determined as 85.

With `CNCCCN1c2ccccc2CCc2ccccc21` [Compound 380, Desipramine hydrochloride], the “Compound effect (percent receptor signaling in presence of test compound, relative lux units relative to the SCH23390 control)” value is 29.

Consider `O=C1NC(=O)C(c2ccccc2)(c2ccccc2)N1` [Compound 382, 5,5-Diphenylhydantoin], for which the “Compound effect (percent receptor signaling in presence of test compound, relative lux units relative to the SCH23390 control)” value is 96.

On to `O=P(O)(O)C(Cl)(Cl)P(=O)(O)O` [Compound 384, Clodronic acid], for which the “Compound effect (percent receptor signaling in presence of test compound, relative lux units relative to the SCH23390 control)” value is listed as 83.

For the compound `O=C1NC(=O)C(c2ccccc2)(c2ccccc2)N1` [Compound 385, Phenytoin sodium], the “Compound effect (percent receptor signaling in presence of test compound, relative lux units relative to the SCH23390 control)” value is 77.

`CC(C)NC[C@H](O)COc1cccc2[nH]ccc12` [Compound 387, S(-)-Pindolol]: the “Compound effect (percent receptor signaling in presence of test compound, relative lux units relative to the SCH23390 control)” value was 91.

Turning to `COc1cc(C(=O)OCCCN2CCCN(CCCOC(=O)c3cc(OC)c(OC)c(OC)c3)CC2)cc(OC)c1OC` [Compound 389, Dilazep hydrochloride], the “Compound effect (percent receptor signaling in presence of test compound, relative lux units relative to the SCH23390 control)” value was determined as 62.

In the case of `C[C@]12CC[C@H](OS(=O)(=O)[O-])CC1=CC[C@@H]1[C@@H]2CC[C@]2(C)C(=O)CC[C@@H]12.[Na+]` [Compound 390, Dehydroisoandrosterone 3-sulfate sodium], the “Compound effect (percent receptor signaling in presence of test compound, relative lux units relative to the SCH23390 control)” value stood at 94.

Regarding `Cn1c(=O)[nH]c2ncn(C)c2c1=O` [Compound 391, 1,7-Dimethylxanthine], the “Compound effect (percent receptor signaling in presence of test compound, relative lux units relative to the SCH23390 control)” value worked out at 94.

With `COC1=C(OC)C(=O)c2ccccc2C1=O` [Compound 392, 2,3-Dimethoxy-1,4-naphthoquinone], the “Compound effect (percent receptor signaling in presence of test compound, relative lux units relative to the SCH23390 control)” value came out at 45.

Turning to `O=c1ccc2ccc(O)c(O)c2o1` [Compound 393, Daphnetin], the “Compound effect (percent receptor signaling in presence of test compound, relative lux units relative to the SCH23390 control)” value was 74.

For the compound `CCC(=O)N1CCN(C(=O)c2ccccc2)CC1` [Compound 394, DM 235], the “Compound effect (percent receptor signaling in presence of test compound, relative lux units relative to the SCH23390 control)” value was found to be 101.

Take `CC1(C)CCC=[N+]1[O-]` [Compound 395, 5,5-Dimethyl-1-pyrroline-N-oxide]: the “Compound effect (percent receptor signaling in presence of test compound, relative lux units relative to the SCH23390 control)” value came out at 94.

As to `Nc1ccn([C@H]2CC[C@@H](CO)O2)c(=O)n1` [Compound 396, 2',3'-dideoxycytidine], the “Compound effect (percent receptor signaling in presence of test compound, relative lux units relative to the SCH23390 control)” value is listed as 102.

On to `O=c1c2ccccc2[nH]c(=S)n1CCN1CCC(=C(c2ccc(F)cc2)c2ccc(F)cc2)CC1` [Compound 397, Diacylglycerol Kinase Inhibitor II], for which the “Compound effect (percent receptor signaling in presence of test compound, relative lux units relative to the SCH23390 control)” value is on record as 74.

In the case of `CNCCc1ccc(O)c(O)c1.Cl` [Compound 399, N-Methyldopamine hydrochloride], the “Compound effect (percent receptor signaling in presence of test compound, relative lux units relative to the SCH23390 control)” value was found to be 94.

With `C[N+]1(C)CCN(c2ccccc2)CC1.[I-]` [Compound 400, 1,1-Dimethyl-4-phenyl-piperazinium iodide], the “Compound effect (percent receptor signaling in presence of test compound, relative lux units relative to the SCH23390 control)” value worked out at 87.

As to `CC(C)N(CCC(C(N)=O)(c1ccccc1)c1ccccn1)C(C)C` (stereo not shown) [Compound 402, Disopyramide phosphate], the “Compound effect (percent receptor signaling in presence of test compound, relative lux units relative to the SCH23390 control)” value is on record as 104.

For `CN(C)[C@@H]1C(O)=C(C(N)=O)C(=O)[C@@]2(O)C(O)=C3C(=O)c4c(O)ccc(Cl)c4[C@@H](O)[C@H]3C[C@@H]12` [Compound 403, Demeclocycline hydrochloride], the “Compound effect (percent receptor signaling in presence of test compound, relative lux units relative to the SCH23390 control)” value is 84.

The assay is the same for the next values; noted with them: 10 µM compound, 300 nM dopamine, 2 hr.
`Cc1nc2sccn2c(=O)c1CCN1CCC(=C(c2ccccc2)c2ccc(F)cc2)CC1` [Compound 401, Diacylglycerol kinase inhibitor I]: the “% of the SCH23390 effect (percent inhibition of receptor response relative to the SCH23390 control)” value turned out to be 90%.

Staying with this assay, now noted: 10 µM compound, 300 nM dopamine, 2 hr; hit = compound effect <20.
On to `COc1cccc(OC)c1OCCNCC1COc2ccccc2O1.Cl` (stereo not shown) [Compound 354, WB-4101 hydrochloride], for which the “Compound effect (percent receptor signaling in presence of test compound, relative lux units relative to the SCH23390 control)” value is listed as 101%.

Consider `OC[C@H]1O[C@@H](n2cnc3ccccc32)[C@H](O)[C@@H]1O` [Compound 367, D-ribofuranosylbenzimidazole], for which the “Compound effect (percent receptor signaling in presence of test compound, relative lux units relative to the SCH23390 control)” value stood at 24%.

Consider `CN(C)C(=O)N=NC(=O)N(C)C` [Compound 376, N,N,N',N'-Tetramethylazodicarboxamide], for which the “Compound effect (percent receptor signaling in presence of test compound, relative lux units relative to the SCH23390 control)” value stood at 93%.

As to `CN(C)C(N)=NCCC[C@H](N)C(=O)O.Cl` [Compound 383, N^G,N^G-Dimethylarginine hydrochloride], the “Compound effect (percent receptor signaling in presence of test compound, relative lux units relative to the SCH23390 control)” value was 106%.

As for `Cc1nc2sccn2c(=O)c1CCN1CCC(=C(c2ccccc2)c2ccc(F)cc2)CC1` [Compound 401, Diacylglycerol kinase inhibitor I], the “Compound effect (percent receptor signaling in presence of test compound, relative lux units relative to the SCH23390 control)” value turned out to be 10%.
